In patent US12011428B2, “Compositions and methods for stimulating ventilatory and/or respiratory drive” (priority 2022, dated 2024):

Tests used:
[1] = system: adult male Sprague—Dawley rats; conditions: rat, in vivo, iv
[2] = system: adult male Sprague—Dawley rats; assay: Arterial blood gas measurements and A-a gradient; type: in vivo, rat; conditions: GSHee 100 μmol/kg IV alone
[3] = system: adult male Sprague—Dawley rats; assay: Behaviors observed after injection; type: in vivo, rat; conditions: GSHee 100 μmol/kg IV
[4] = system: adult male Sprague—Dawley rats; assay: Body temperature (BT), rectal thermistor probe; conditions: for Body temperature, Post-drug: conscious rats
[5] = system: freely-moving adult male Sprague—Dawley rats
[6] = GSH 100 μmol/kg IV, % change from Pre-values
[7] = GSH 100 μmol/kg IV, sum of the 15 individual % change from pre values

Row | Compound | tail-flick latency (TFL) [1] | A-a gradient [2] | arterial blood pCO2 [2] | arterial blood pH [2] | arterial blood pO2 [2] | arterial blood sO2 [2] | behavioral signs (movement, squealing, scratching or sniffing) after injection [3] | body temperature (BT) ([4]; 5 and 15 min post-injection of GSHee 100 μmol/kg IV) | Body temperature, Post-drug ([4]; 5 min after GSHee 100 μmol/kg IV) | Body temperature, Post-drug ([4]; 15 min after GSHee 100 μmol/kg IV) | Freq (frequency of breathing) ([5]; GSH 100 μmol/kg IV alone) | MV (minute ventilation) ([5]; GSH 100 μmol/kg IV alone) | TV (tidal volume) ([5]; GSH 100 μmol/kg IV alone) | Frequency (breaths/min), Peak drug response, % [5, 6] | Minute Ventilation (ml/min), Peak drug response, % [5, 6] [%] | Tidal Volume (ml), Peak drug response, % [5, 6] | Frequency, Total drug response, % [5, 7] | Minute Ventilation, Total drug response, % [5, 7] [%] | Tidal Volume, Total drug response, % [5, 7]
1 | CCOC(=O)CNC(=O)[C@H](CS)NC(=O)CC[C@H](N)C(=O)O [GSHee, L-glutathione ethyl ester] | did not alter TFL | did not affect | minor but significant decrease | minor but significant increases | minor but significant increases | did not affect | did not display any obvious behavioral signs | Neither vehicle nor GSHee affected BT | 37.9 ± 0.1 | 37.9 ± 0.1 | – | – | – | – | – | – | – | – | –
2 | N[C@@H](CCC(=O)N[C@@H](CS)C(=O)NCC(=O)O)C(=O)O [GSH, glutathione] | – | – | – | – | – | – | – | – | – | – | prompt but short-lived increase | short-lived increases | minor effects | +41% | 61 | +15% | +13% | 15 | +2%
